Measurements published in publication PMC6303473 (Nature Communications, 2018).

System: CD8+ T cells from HLA-B*44:02, HLA-B*44:03, or HLA-B*18:01 individuals
Type: cell-based, human
Settings: ICS
Excerpt: Fig. 1 NP338 elicits robust CD8^+ T cell responses only in the context of HLA-B*37:01. a–d Crystal structures of a HLA-B*37:01 (purple), b HLA-B*18:01 (blue), and c HLA-B*44:05 (yellow) in complex with NP338 WT (represented in black stick). d is showing an overlay of the three peptide–HLA complexes in cartoon representation, with NP338 colored accordingly to the bound HLA, namely, purple (HLA-B*37:01), blue (HLA-B*18:01), and yellow (HLA-B*44:05). e–g PBMCs from HLA-B*37:01^+ donors (n = 5), HLA-B*44:02^+ donors (n = 5), HLA-B*44:03^+ donors (n = 5), or HLA-B*18:01^+ donors (n = 5) were stimulated with a pool of NP338 peptides (10 μM each peptide, 30 μM total), and specificity was assessed in an ICS assay against 3 μM NP338 pool (1 μM each peptide, HLA-B*44:02^+ donors) directly into the well or 30 μM (10 μM each peptide, all other donors) NP338-pooled pulsed APC lines (HLA-B*37:01, HLA-B*44:03, and HLA-B*18:01). CD8^+ T cells are gated on lymphocytes, singlets, live^+ (when stained with the second antibody cocktail only) CD3^mid-high, CD8^+ T cells; as per Supplementary Fig. 2a. e Representative dot plots of IFNγ^+TNFα^+ production by pooled CD8^+ T cell lines derived from HLA-B*37:01^+, HLA-B*44:02^+, HLA-B*44:03^+, or HLA-B*18:01^+ donors, towards a pool of NP338 peptides. […]

Compound	CD8+ T cell response to non-specific stimulation
CCCCCCCCCCCCCC(=O)O[C@@H]1[C@@H](C)[C@@]2(O)[C@@H](C=C(CO)C[C@]3(O)C(=O)C(C)=C[C@@H]23)[C@@H]2C(C)(C)[C@]12OC(C)=O [phorbol 12-myristate 13-acetate]	responded strongly
Concanavalin A	responded strongly
